Measurements: ChEMBL document CHEMBL1122949, “Pepstatin-derived inhibitors of aspartic proteinases. A close look at an apparent transition-state analogue inhibitor” (J Med Chem, 1985)
Numbered stars: 1 amine (or outer) side, 2 acyl side, 3 side chain; on linkers, the order of the positions; unused ones are H or OH. Square brackets hold non-standard residues; d marks the D form. Peptide text beside a SMILES is read from it. * marks the point of attachment. ξ: configuration not given here. X1 = CC[C@H](C)[C@H](NC(=O)[C@H](CC(C)C)NC[C@H](CC(C)C)N*)C(=O)N[C@@H](Cc1c[nH]cn1)C(=O)O; LeuΨ(ξCHOHCH2)Val = CC(C)C[C@H](N[*:1])C(O)C[C@H](C(=O)[*:2])C(C)C; Sta(3ξ) = CC(C)C[C@H](N[*:1])C(O)CC(=O)[*:2]; Isovaleryl = CC(C)CC(=O)*; Boc = CC(C)(C)OC(=O)*

How the values were obtained:
[1] = target: Pepsin A (Sus scrofa, UniProt P00791); experiment: Inhibition of porcine pepsin
[2] = Compound was evaluated for the ability to inhibit penicillopepsin.
[3] = target: T1, Renin (Homo sapiens, UniProt P00797); experiment: Compound was evaluated for the ability to inhibit human plasma renin.; type: cell-free
T1 sequence (P00797 whole entry): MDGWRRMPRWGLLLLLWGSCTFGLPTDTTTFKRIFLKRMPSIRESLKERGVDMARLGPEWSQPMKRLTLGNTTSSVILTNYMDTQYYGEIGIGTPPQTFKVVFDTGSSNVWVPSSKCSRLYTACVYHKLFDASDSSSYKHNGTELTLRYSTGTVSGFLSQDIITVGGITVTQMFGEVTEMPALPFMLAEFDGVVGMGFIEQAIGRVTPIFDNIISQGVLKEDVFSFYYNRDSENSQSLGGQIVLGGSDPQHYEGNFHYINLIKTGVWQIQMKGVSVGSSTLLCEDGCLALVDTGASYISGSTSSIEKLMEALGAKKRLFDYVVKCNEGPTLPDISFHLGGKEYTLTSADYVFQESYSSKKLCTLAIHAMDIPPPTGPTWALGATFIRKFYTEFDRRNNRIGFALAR

Sequence of Pepsin A (P00791 whole entry): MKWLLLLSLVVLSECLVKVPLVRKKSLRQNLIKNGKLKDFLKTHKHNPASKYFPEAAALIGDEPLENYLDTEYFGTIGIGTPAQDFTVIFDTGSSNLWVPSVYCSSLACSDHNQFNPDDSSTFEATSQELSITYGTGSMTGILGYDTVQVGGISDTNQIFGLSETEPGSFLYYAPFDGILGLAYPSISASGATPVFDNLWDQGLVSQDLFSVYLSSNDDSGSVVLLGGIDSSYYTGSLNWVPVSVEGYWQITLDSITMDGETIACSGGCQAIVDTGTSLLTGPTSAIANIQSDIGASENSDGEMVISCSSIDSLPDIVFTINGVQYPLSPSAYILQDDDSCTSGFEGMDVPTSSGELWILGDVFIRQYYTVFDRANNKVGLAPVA

SMILES | Ki [1] [nM] | Ki [2] [nM] | IC50 [3] [nM]
CC(C)CCC(=O)NC(=O)CNC(=O)CC(O)[C@@H](CC(C)C)NC(=O)[C@H](NC(=O)CC(C)C)C(C)C (some centres not stated) | 56 |  | 
CCOC(=O)CC(O)[C@H](CC(C)C)NC(=O)[C@@H](NC(=O)[C@@H](NC(=O)CC(C)C)C(C)C)C(C)C (some centres not stated) | 10 | 47 | 
CC(C)CCC(=O)NC(=O)[C@H](C)NC(=O)CCC(O)[C@@H](CC(C)C)NC(=O)[C@H](NC(=O)CC(C)C)C(C)C (some centres not stated) | 50 |  | 
CC[C@H](C)[C@H](NC(=O)CC(O)[C@H](CC(C)C)NC(=O)[C@H](Cc1c[nH]cn1)NC(=O)[C@H](Cc1ccccc1)NC(=O)[C@@H]1CCCN1C(=O)[C@H](Cc1c[nH]cn1)NC(=O)CC(C)C)C(=O)N[C@@H](Cc1ccccc1)C(=O)OC (some centres not stated) (Isovaleryl-HPFH[Sta(3ξ)]IF-OMe) |  |  | 0.6
CC[C@H](C)[C@H](NC(=O)[C@H](Cc1ccccc1)NC(=O)[C@H](Cc1ccccc1)NC(=O)[C@H](Cc1c[nH]cn1)NC(=O)[C@H](Cc1ccccc1)NC(=O)[C@@H]1CCCN1C(=O)[C@H](Cc1c[nH]cn1)NC(=O)[C@@H]1CCCN1)C(=O)N[C@@H](Cc1c[nH]cn1)C(=O)O |  |  | 7000
CC(C)CNC(=O)[C@H](C)NC(=O)[C@@H](C)CC(O)[C@@H](CC(C)C)NC(=O)[C@H](NC(=O)CC(C)C)C(C)C (stereo in doubt; 16b(4R)) | 700 |  | 
CC(C)CNC(=O)[C@H](C)NC(=O)[C@@H](C)CC(O)[C@@H](CC(C)C)NC(=O)[C@H](NC(=O)CC(C)C)C(C)C (stereo in doubt; 16a(4S)) | 3 |  | 
CC(C)CCC(=O)NC(=O)[C@H](C)NC(=O)CC(=O)[C@H](CC(C)C)NC(=O)[C@@H](NC(=O)[C@@H](NC(=O)CC(C)C)C(C)C)C(C)C | 10 | 85 | 
CC(C)CCC(=O)NC(=O)[C@H](C)NC(=O)CC(O)[C@@H](Cc1ccccc1)NC(=O)[C@H](NC(=O)CC(C)C)C(C)C (some centres not stated) | 0.9 |  | 
CC(C)CCC(=O)NC(=O)C(C)NC(=O)CC(O)[C@H](CC(C)C)NC(=O)[C@@H](NC(=O)[C@@H](NC(=O)CC(C)C)C(C)C)C(C)C (some centres not stated) | 2000 |  | 
CC(C)CNC(=O)CNC(=O)[C@@H](C)CC(O)[C@@H](CC(C)C)NC(=O)[C@H](NC(=O)CC(C)C)C(C)C (some centres not stated) | 53 |  | 
CC(C)CCC(=O)NC(=O)[C@H](C)NC(=O)CC(O)[C@@H](CC(C)C)N(C)C(=O)[C@H](NC(=O)[C@@H](NC(=O)CC(C)C)C(C)C)C(C)C (stereo in doubt; 13a(3s)) | 1200 | > 5000 | 
CC(C)CCC(=O)NC(=O)[C@@H](C)NC(=O)CC(=O)[C@H](CC(C)C)NC(=O)[C@@H](NC(=O)CC(C)C)C(C)C | 56 |  | 
CC[C@H](C)[C@H](NC(=O)[C@H](CC(C)C)NC[C@H](CC(C)C)NC(=O)C(Cc1c[nH]cn1)NC(=O)[C@H](Cc1ccccc1)NC(=O)[C@@H]1CCCN1C(=O)C(N)Cc1c[nH]cn1)C(=O)NC(Cc1c[nH]cn1)C(=O)O (stereo in doubt) |  |  | 1000
CC[C@H](C)[C@H](NC(=O)[C@@H](CC(O)[C@H](CC(C)C)NC(=O)[C@H](Cc1cnc[nH]1)NC(=O)[C@H](Cc1ccccc1)NC(=O)[C@@H]1CCCN1C(=O)[C@H](Cc1cnc[nH]1)NC(=O)OC(C)(C)C)C(C)C)C(=O)N[C@@H](Cc1cnc[nH]1)C(=O)O (some centres not stated) (Boc-HPFH[LeuΨ(ξCHOHCH2)Val]IH-OH) |  |  | 0.7
CC(C)CC(=O)N[C@H](C(=O)N[C@H](C(=O)N[C@@H](CC(C)C)[C@@H](O)CC(=O)N[C@@H](C)C(=O)N[C@@H](CC(C)C)[C@@H](O)CC(=O)O)C(C)C)C(C)C [PEPSTATIN] | 0.056 | 0.15 | 
CC[C@H](C)[C@H](NC(=O)CC(O)[C@H](CC(C)C)NC(=O)[C@H](Cc1c[nH]cn1)NC(=O)[C@H](Cc1ccccc1)NC(=O)[C@@H]1CCCN1C(=O)[C@H](Cc1c[nH]cn1)NC(=O)CC(C)C)C(=O)N[C@@H](Cc1ccccc1)C(N)=O (some centres not stated) (Isovaleryl-HPFH[Sta(3ξ)]IF-NH2) |  |  | 1.9
CC[C@H](C)[C@H](NC(=O)[C@H](CC(C)C)NC[C@H](CC(C)C)NC(=O)[C@H](Cc1c[nH]cn1)NC(=O)[C@H](Cc1ccccc1)NC(=O)[C@@H]1CCCN1C(=O)[C@H](Cc1c[nH]cn1)NC(=O)[C@@H]1CCCN1)C(=O)N[C@@H](Cc1c[nH]cn1)C(=O)O (H-PHPFH-X1) |  |  | 10
CC(C)CNC(=O)[C@@H](C)NC(=O)[C@@H](C)CC(=O)[C@H](CC(C)C)NC(=O)[C@@H](NC(=O)CC(C)C)C(C)C | 110 |  | 
CC(C)CCC(=O)NC(=O)[C@@H](C)NC(=O)CC(O)[C@H](CC(C)C)NC(=O)[C@@H](NC(=O)CC(C)C)C(C)C (some centres not stated) | 3 | 7600 | 
CC(C)CCC(=O)NC(=O)[C@@H](C)CC(O)[C@@H](CC(C)C)NC(=O)[C@H](NC(=O)CC(C)C)C(C)C (some centres not stated) | 27 |  | 
CC(C)CC(=O)N[C@H](C(=O)N[C@H](C(=O)N[C@H](CCC(=O)NC(C)C(=O)N[C@H](CCC(=O)O)CC(C)C)CC(C)C)C(C)C)C(C)C (some centres not stated) | 210 |  | 
